Tested on: thyroid transcription factor-1 (TTF-1) mRNA expression in A549 lung carcinoma cells
Assay: TTF-1 knockdown determination by RT-qPCR
Format: cell-based, human
Design: knockdown (reduction) of TTF-1 mRNA: concentration or dose not given beside the values
Conditions: for Relative TTF-1 mRNA Expression (Normalized to GAPDH) / knockdown (reduction) of TTF-1 mRNA: A549 cells, TTF-1 siRNA; for Relative TTF-1 mRNA Expression (Normalized to GAPDH): 4 h dosing then 48 h incubation; for knockdown (reduction) of TTF-1 mRNA: normalized to GAPDH; for knockdown efficacy group: relative to Lipofectamine
Excerpt: Finally, N-X-Phe derivatives achieved functional delivery of siRNA. To verify delivery of functional siRNA using N-X-Phe-DAP/siRNA particles, relative thyroid transcription factor-1 (TTF-1) mRNA expression normalized to GAPDH in A549 lung carcinoma cells was quantified against knockdown efficiencies with Lipofectamine as a control delivery agent (FIG. 6, Table 3). […] “Scrambled” is control siRNA delivered with Lipofectamine. TTF-1 is delivery of TTF-1 siRNA with Lipofectamine (n=5, *p≤0.05, **p≤0.01, ****p≤0.0001).
Sample Preparation for Cell-Based Experiments: For delivery analysis and functional knockdown, N-X-Phe-DAP derivatives (10 μL, 1 mM) or Lipofectamine 3000 (6 μL) was mixed with TTF-1 siRNA (Santa Cruz Biotechnology sc-36756, 6 μL, 10 μM) in Ultrapure™ DNase/RNase-Free Distilled Water (Invitrogen 10977015) to give a final volume of 100 μL. These mixtures were incubated for 30 minutes at room temperature, followed by dilution into 1×DMEM (Gibco 11965092, 1.9 mL). For cytotoxicity assays, N-X-Phe-DAP derivatives (10 μL, 1 mM) were diluted into 1×DMEM (Gibco 11965092, 1.9 mL).
TTF-1 Knockdown Determination: All knockdown experiments were performed in triplicate. A549 cells were seeded at a density of 1.05×10^5 cells/well in a 96-well plate (200 μL) and grown to 70-90% confluency. Cells were washed twice with 1×PBS (200 μL/well), N-X-Phe-DAP/siRNA samples were added (200 μL/well), and mixtures were incubated for 4 h at 37° C., 5% CO2. After 4 h, the media was removed, cells were washed with 1×PBS, wells were replenished with complete media containing 1×DMEM (Gibco 11965092), 10% fetal bovine serum (FBS, Invitrogen 26140087), and 1× antibiotic-antimycotic (Gibco 15240-062) and incubated an additional 48 h.
Cells were lysed and RNA was extracted using an Aurum Total RNA Mini Kit (Bio-Rad 7326820). In brief, cells were lysed with Lysis solution containing 1% β-mercaptoethanol (200 μL). Lysate was then mixed with 70% EtOH (200 μL) and processed using QIAshredder homogenizer columns (Qiagen 79656). Homogenate was then transferred to Aurum RNA binding columns, washed with Low Stringency Wash Solution, and incubated with diluted DNase I solution (80 μL) for 15 minutes at RT. Samples were then serially washed with High and Low Stringency Wash Solutions and RNA was eluded from the column with Ultrapure™ DNase/RNase-Free Distilled Water (Invitrogen 10977015, 80 μL). Recovered RNA was quantified on a Nanodrop One system and samples were diluted in Ultrapure™ DNase/RNase-Free Distilled Water (Invitrogen 10977015, 2 ng/μL). Relative TTF-1 knockdown was quantified by RT-qPCR
An iScript cDNA Synthesis Kit (Bio-Rad 1708891) was used for reverse transcription of extracted RNA samples. In brief, samples were prepared by combining 5× iScript Reaction Mix (4 μL), iScript Reverse Transcriptase (1 μL), extracted RNA (12.5 μL, 2 ng/μL), and Ultrapure™ DNase/RNase-Free Distilled Water (Invitrogen 10977015, 2.5 μL). Samples were incubated on a Bio-Rad Thermal Cycler using the following protocol: 5 min priming at 25° C., 20 min reverse transcription at 40° C., and 1 min reverse transcriptase inactivation at 95° C. Recovered cDNA was quantified on a Nanodrop One and samples were diluted in Ultrapure™ DNase/RNase-Free Distilled Water (Invitrogen 10977015, 50 ng/μL). Gene expression was quantified utilizing qPCR. A primer stock solution (750 nM, 267 μL, H2O) of TTF-1 (Santa Cruz Biotechnology, sc-36756-PR) or GAPDH (Santa Cruz Biotechnology, sc-35448-PR) primer pairs were prepared by dilution of Primer A (20 μL, 10 μM) and Primer B (20 μL, 10 μM) into Ultrapure™ DNase/RNase-Free Distilled Water (Invitrogen 10977015, 227 μL). Samples were prepared in triplicate by combining 2× iTaq Universal SYBR Green Super Mix (5 μL, Bio-Rad), TTF-1 or GAPDH primer stock (4 μL, 750 nM), and recovered cDNA (1 μL, 50 ng/μL) in sterile qPCR tubes. Quantitative Ct values were obtained by running samples on a Bio-Rad CFX96 Touch using the “PWRUP60” protocol. […]

Row | SMILES | Relative TTF-1 mRNA Expression (Normalized to GAPDH) | knockdown (reduction) of TTF-1 mRNA | knockdown efficacy group
1 | NCCCNC(=O)[C@H](Cc1ccccc1)NC(=O)Cc1cccc2ccccc12 [1-Nap-Phe-DAP] | 13.8 ± 3.7 | 86% | highly effective knockdown (dramatically improved relative to Lipofectamine)
2 | NCCCNC(=O)[C@H](Cc1ccccc1)NC(=O)Cc1ccc2ccccc2c1 [2-Nap-Phe-DAP] | 13.4 ± 1.4 | 87% | highly effective knockdown (dramatically improved relative to Lipofectamine)
3 | NCCCNC(=O)[C@H](Cc1ccccc1)NC(=O)OCc1ccccc1 [Cbz-Phe-DAP] | 30.9 ± 3.0 | approximately 70% | effective knockdown (slightly improved or similar relative to Lipofectamine)
4 | NCCCNC(=O)[C@H](Cc1ccccc1)NC(=O)C1CCCCC1 [Cyc-Phe-DAP] | – | – | ineffective knockdown (less effective than Lipofectamine)
5 | NCCCNC(=O)[C@H](Cc1ccccc1)NC(=O)CC1c2ccccc2-c2ccccc21 [Fm-Phe-DAP] | 37.9 ± 8.3 | ~62% | effective knockdown (slightly improved or similar relative to Lipofectamine)
6 | NCCCNC(=O)[C@H](Cc1cccc(F)c1)NC(=O)OCC1c2ccccc2-c2ccccc21 [Fmoc-3F-Phe-DAP] | 51.8 ± 6.6 | ~48% | –
7 | NCCCNC(=O)[C@H](Cc1c(F)c(F)c(F)c(F)c1F)NC(=O)OCC1c2ccccc2-c2ccccc21 [Fmoc-F5-Phe-DAP] | 38.6 ± 4.9 | ~61% | effective knockdown (slightly improved or similar relative to Lipofectamine)
8 | NCCCNC(=O)[C@H](Cc1ccccc1)NC(=O)OCC1c2ccccc2-c2ccccc21 [Fmoc-Phe-DAP] | 17.4 ± 2.1 | 83% | highly effective knockdown (dramatically improved relative to Lipofectamine)
9 | CCCCCCC(=O)N[C@@H](Cc1ccccc1)C(=O)NCCCN [Hex-Phe-DAP] | – | – | ineffective knockdown (less effective than Lipofectamine)
10 | NCCCNC(=O)[C@H](Cc1ccccc1)NC(=O)CCCc1ccc2ccc3cccc4ccc1c2c34 [Pyr-Phe-DAP] | 33.0 ± 2.2 | approximately 70% | effective knockdown (slightly improved or similar relative to Lipofectamine)
